Measurements published in ChEMBL document CHEMBL4371090, “Chemical Synthesis Study Establishes the Correct Structure of the Potent Anti-Inflammatory Agent Myrsinoic Acid F” (J Nat Prod, 2019).
Activity calls are given as the source filed them. The rule behind the calls is not given here.

Tested on: Mus musculus
Experiment: Anti-inflammatory activity in TPA-induced mouse ear edema model assessed as inhibition of ear swelling at 0.6 to 1.4 umol applied topically on ear pretreated for 0.5 hrs followed by TPA application and measured after 7 hrs
Type: functional, organism-based

Compound | inhibition
CC(C)=CC/C=C(\C)C(O)Cc1cc(C(=O)O)cc(CC=C(C)C)c1O (stereo not drawn) | Active
COc1ccc2c(c1)c(CC(=O)O)c(C)n2C(=O)c1ccc(Cl)cc1 | Active
CC(C)=CC/C=C(\C)C(O)Cc1cc(Br)cc(CC=C(C)C)c1O (stereo not drawn) | Active
